Data published in patent publication US10869844B2, “Methods for the treatment of depression” (Janssen Pharmaceutica NV, priority 2014, dated 2020).
Read-outs that look alike come from different tables or passages of the source.

Legend:
[1] = tested on: Met/Met knocked in mice; settings: LIU, Biol. Psychiatry 2012; cited from earlier work
[2] = tested on: adult subjects with treatment resistant depression; type: in vivo, human; settings: for Non-remitters % / Non-remitters No. / Remitters No. (MADRS total score 10) / Remitters % (MADRS total score 10): ketamine pooled 2x/week and 3x/week; for Duration of response, survival function estimate: Failure / Duration of response, survival function estimate: Survival: ketamine responders (Day 29), follow-up phase; for Response rates, Val/Val vs Met carriers: ketamine subjects
Description: This was a double-blind, randomized, placebo-controlled, parallel arm study to assess the safety and efficacy of ketamine dosed 2 or 3 times weekly in adult subjects with treatment resistant depression. The study consisted of up to 4 phases: a screening phase of up to 4 weeks, a 4-week double-blind treatment phase (Day 1 to Day 29), an optional 2-week open label treatment phase, and a post treatment (follow up) phase of up to 3 weeks.
On Day 1 of the double-blind treatment phase, subjects were randomized to receive either i.v. infusions of placebo 2 times weekly or i.v. infusions of placebo 3 times weekly or i.v. infusions of ketamine 0.50 mg/kg, 2 times weekly or i.v. infusions of ketamine 0.50 mg/kg, 3 times weekly over 4 weeks.
Subjects who discontinued the double-blind treatment phase of the study due to lack of efficacy (based upon the clinical judgment of the investigator) after completion of the Day 15 visit, but prior to the Day 29 visit, may have received open-label ketamine treatment with the same dose frequency for an additional 2 weeks. After completing the Early Termination visit, the subject had study assessments as per the Time and Events Schedule for the optional open-label treatment phase followed by one follow up visit performed 1 week after the last dose of study medication.

[3] = Met carriers, DAY 03 or DAY 04, ketamine pooled 2x/wk and 3x/wk
[4] = Met carriers, DAY 08(DB), ketamine pooled 2x/wk and 3x/wk
[5] = Met carriers, DAY 15(DB), ketamine pooled 2x/wk and 3x/wk
[6] = Met carriers, DAY 29(DB), ketamine pooled 2x/wk and 3x/wk
[7] = Met carriers, Day 0 after Day 29
[8] = Met carriers, Day 10 after Day 29
[9] = Met carriers, Day 11 after Day 29
[10] = Val/Val, DAY 03 or DAY 04, ketamine pooled 2x/wk and 3x/wk
[11] = Val/Val, DAY 08(DB), ketamine pooled 2x/wk and 3x/wk
[12] = Val/Val, DAY 15(DB), ketamine pooled 2x/wk and 3x/wk
[13] = Val/Val, DAY 29(DB), ketamine pooled 2x/wk and 3x/wk

CNC1(c2ccccc2Cl)CCCCC1=O (racemic) [Ketamine, ketamine]
Antidepressant-like response, Met/Met knocked in mice compared to Val/Val mice [1]: blunted antidepressant-like response
Synaptogenesis, Met/Met knocked in mice compared to Val/Val mice [1]: reduced synaptogenesis
Subjects who remain well, number ([2]; Met carrier group, at Day 39, from 7): 4
Day 29 responders who maintain response status during the follow-up phase, % ([2]; Met carriers (of 8)): 62.5%
Day 29 responders who maintain response status during the follow-up phase, number ([2]; Met carriers (of 8)): 5
Non-remitters % ([2]; Met carriers, DAY 03 or DAY 04): 100.0%
Non-remitters No. ([2]; Met carriers, DAY 03 or DAY 04): 13
Remitters No. (MADRS total score 10) ([2]; Met carriers, DAY 03 or DAY 04): 0
MADRS total score change from baseline, Mean [2, 3]: −6.85
MADRS total score, Mean [2, 3]: 25.92
Non-responders % [2, 3]: 92.3%
Non-responders N [2, 3]: 12
Responders % (MADRS total score reduction ≥50%) [2, 3]: 7.7%
Responders N (MADRS total score reduction ≥50%) [2, 3]: 1
Non-remitters % ([2]; Met carriers, DAY 08(DB)): 72.7%
Non-remitters No. ([2]; Met carriers, DAY 08(DB)): 8
Remitters % (MADRS total score 10) ([2]; Met carriers, DAY 08(DB)): 27.3%
Remitters No. (MADRS total score 10) ([2]; Met carriers, DAY 08(DB)): 3
MADRS total score change from baseline, Mean [2, 4]: −15.64
MADRS total score, Mean [2, 4]: 17.00
Non-responders % [2, 4]: 54.5%
Non-responders N [2, 4]: 6
Responders % (MADRS total score reduction ≥50%) [2, 4]: 45.5%
Responders N (MADRS total score reduction ≥50%) [2, 4]: 5
Non-remitters % ([2]; Met carriers, DAY 15(DB)): 54.5%
Non-remitters No. ([2]; Met carriers, DAY 15(DB)): 6
Remitters % (MADRS total score 10) ([2]; Met carriers, DAY 15(DB)): 45.5%
Remitters No. (MADRS total score 10) ([2]; Met carriers, DAY 15(DB)): 5
MADRS total score change from baseline, Mean [2, 5]: −17.45
MADRS total score, Mean [2, 5]: 15.18
Non-responders % [2, 5]: 45.5%
Non-responders N [2, 5]: 5
Responders % (MADRS total score reduction ≥50%) [2, 5]: 54.5%
Responders N (MADRS total score reduction ≥50%) [2, 5]: 6
Non-remitters % ([2]; Met carriers, DAY 29(DB)): 33.3%
Non-remitters No. ([2]; Met carriers, DAY 29(DB)): 3
Remitters % (MADRS total score 10) ([2]; Met carriers, DAY 29(DB)): 66.7%
Remitters No. (MADRS total score 10) ([2]; Met carriers, DAY 29(DB)): 6
MADRS total score change from baseline, Mean [2, 6]: −22.00
MADRS total score, Mean [2, 6]: 10.78
Non-responders % [2, 6]: 11.1%
Non-responders N [2, 6]: 1
Responders % (MADRS total score reduction ≥50%) [2, 6]: 88.9%
Responders N (MADRS total score reduction ≥50%) [2, 6]: 8
Duration of response, survival function estimate: Failure [2, 7]: 0
Duration of response, survival function estimate: Survival [2, 7]: 1.0000
Duration of response, survival function estimate: Failure [2, 8]: 0.2857
Duration of response, survival function estimate: Survival [2, 8]: 0.7143
Duration of response, survival function estimate: Failure [2, 9]: 0.4286
Duration of response, survival function estimate: Survival [2, 9]: 0.5714
Day 29 responders who maintain response status during the follow-up phase, % ([2]; Val/Val (of 14)): 64.3%
Day 29 responders who maintain response status during the follow-up phase, number ([2]; Val/Val (of 14)): 9
Ketamine responders on Day 29, number ([2]; Val/Val and Met carriers together): 22
Non-remitters % ([2]; Val/Val, DAY 03 or DAY 04): 95.2%
Non-remitters No. ([2]; Val/Val, DAY 03 or DAY 04): 20
Remitters % (MADRS total score 10) ([2]; Val/Val, DAY 03 or DAY 04): 4.8%
Remitters No. (MADRS total score 10) ([2]; Val/Val, DAY 03 or DAY 04): 1
MADRS total score change from baseline, Mean [2, 10]: −12.67
MADRS total score, Mean [2, 10]: 22.29
Non-responders % [2, 10]: 71.4%
Non-responders N [2, 10]: 15
Responders % (MADRS total score reduction ≥50%) [2, 10]: 28.6%
Responders N (MADRS total score reduction ≥50%) [2, 10]: 6
Non-remitters % ([2]; Val/Val, DAY 08(DB)): 80.0%
Non-remitters No. ([2]; Val/Val, DAY 08(DB)): 16
Remitters % (MADRS total score 10) ([2]; Val/Val, DAY 08(DB)): 20.0%
Remitters No. (MADRS total score 10) ([2]; Val/Val, DAY 08(DB)): 4
MADRS total score change from baseline, Mean [2, 11]: −16.65
MADRS total score, Mean [2, 11]: 18.50
Non-responders % [2, 11]: 60.0%
Non-responders N [2, 11]: 12
Responders % (MADRS total score reduction ≥50%) [2, 11]: 40.0%
Responders N (MADRS total score reduction ≥50%) [2, 11]: 8
Non-remitters % ([2]; Val/Val, DAY 15(DB)): 77.8%
Non-remitters No. ([2]; Val/Val, DAY 15(DB)): 14
Remitters % (MADRS total score 10) ([2]; Val/Val, DAY 15(DB)): 22.2%
Remitters No. (MADRS total score 10) ([2]; Val/Val, DAY 15(DB)): 4
MADRS total score change from baseline, Mean [2, 12]: −18.50
MADRS total score, Mean [2, 12]: 16.11
Non-responders % [2, 12]: 33.3%
Non-responders N [2, 12]: 6
Responders % (MADRS total score reduction ≥50%) [2, 12]: 66.7%
Responders N (MADRS total score reduction ≥50%) [2, 12]: 12
Non-remitters % ([2]; Val/Val, DAY 29(DB)): 35.3%
Non-remitters No. ([2]; Val/Val, DAY 29(DB)): 6
Remitters % (MADRS total score 10) ([2]; Val/Val, DAY 29(DB)): 64.7%
Remitters No. (MADRS total score 10) ([2]; Val/Val, DAY 29(DB)): 11
MADRS total score change from baseline, Mean [2, 13]: −26.59
MADRS total score, Mean [2, 13]: 9.59
Non-responders % [2, 13]: 17.6%
Non-responders N [2, 13]: 3
Responders % (MADRS total score reduction ≥50%) [2, 13]: 82.4%
Responders N (MADRS total score reduction ≥50%) [2, 13]: 14
Duration of response, survival function estimate: Failure ([2]; Val/Val, Day 0 after Day 29): 0
Duration of response, survival function estimate: Survival ([2]; Val/Val, Day 0 after Day 29): 1.0000
Duration of response, survival function estimate: Failure ([2]; Val/Val, Day 4 after Day 29): 0.1429
Duration of response, survival function estimate: Survival ([2]; Val/Val, Day 4 after Day 29): 0.8571
Duration of response, survival function estimate: Failure ([2]; Val/Val, Day 16 after Day 29): 0.2208
Duration of response, survival function estimate: Survival ([2]; Val/Val, Day 16 after Day 29): 0.7792
Duration of response, survival function estimate: Failure ([2]; Val/Val, Day 18 after Day 29): 0.3321
Duration of response, survival function estimate: Survival ([2]; Val/Val, Day 18 after Day 29): 0.6679
Duration of response, survival function estimate: Failure ([2]; Val/Val, Day 38 after Day 29): 1.0000
Duration of response, survival function estimate: Survival ([2]; Val/Val, Day 38 after Day 29): 0
Subjects who remain well, number ([2]; Val/Val, by Day 44, of 14): 12
Reduction in MADRS total score, Val/Val vs Met carriers ([2]; ketamine pooled 2x/wk and 3x/wk, over time): Larger reductions in MADRS total score over most time points were observed in Val/Val carriers as compared to those Met carriers
Response rates, Val/Val vs Met carriers ([2]; Day 3 or Day 4 and Day 15): response rates were higher on Day 3 or Day 4 and Day 15 in Val/Val subjects than in Met carriers
Response rates, Val/Val vs Met carriers ([2]; Days 8 and 29): response rates were similar on Days 8 and 29
